Laboratory results published in patent US8835422B2, “Substituted imidazoheterocycle derivatives” (Cara Therapeutics, Inc., priority 2008, dated 2014).
Read-outs that look alike come from different tables or passages of the source.

How the values were obtained:
[1] = system: acetic acid-induced writhing; assay: Inhibition of acetic acid-induced writhing in mice; assay type: in vivo, Male ICR mice; settings: dose of 10 mg/kg, subcutaneous, 30 min before acetic acid; writhes over 15 min
Excerpt: 12: 525-562; Ramabadran and Bansinath (1986) Pharm. Res. 3: 263-270]. Intraperitoneal administration of dilute acetic acid solution causes a writhing behavior in mice. A writhe is defined as a contraction of the abdominal muscles accompanied by an extension of the forelimbs and elongation of the body. The number of writhes observed in the presence and absence of test compounds is counted to determine the analgesic activity of the compounds.
Male ICR mice, 20-40 grams in weight, were weighed and placed in individual observation chambers (usually a 4000 ml beaker) with a fine layer of rodent bedding at the bottom. To determine the activity and potency of test compounds, different doses of the compound solution or vehicle were injected subcutaneously in the back of the neck 30 minutes prior to administration of acetic acid solution. After administration of the compound or vehicle control, mice were returned to their individual observation chambers awaiting the intraperitoneal administration of acetic acid solution. Thirty minutes later, 10 ml/kg of a 0.6% (v/v) acetic acid solution was then injected into the right lower quadrant of the abdomen. Immediately after the injection, the mouse was returned to its observation chamber and the recording of the number of writhes is begun immediately. The number of writhes was counted over a 15-min period starting from the time of acetic acid injection. Raw data were analyzed using a one-way ANOVA followed by Dunnett's post-tests.
For dose-response analysis, raw data were converted to % maximum possible effect (% MPE) using the formula: % MPE=((Wc−Wv)/(0−Wv))×100, where Wc is the number of writhes in compound-treated mice and Wv is the mean number of writhes in vehicle-treated mice. The dose which elicited 50% attenuation of hypersensitivity (ED50) was determined using linear regression analysis. (Tallarida & Murray, 1987).

[2] = biological target: T1, human CB2 receptor (hCB2) (Homo sapiens, UniProt P34972); assay: cAMP assay (LANCE TR-FRET) in CHO-K1 cells stably expressing hCB2; assay type: cell-based
T1 construct: host or cells: CHO-K1
Procedure: (§1) The ability of compounds to act as agonists or inverse agonists at human CB2 and CB1 receptors (hCB2, hCB1, respectively) and at the rat CB2 receptor (rCB2) was determined by measuring changes in intracellular cAMP levels. Chinese Hamster Ovary (CHO-K1) cell lines stably expressing hCB2 (Genebank: X74328) or hCB1 (Genebank: X54937) were purchased from Euroscreen (Gosselies, Belgium). The rat CB2 receptor was expressed from genomic DNA (provided by M. Abood, California Pacific Medical Center) in CHO-K1 cells from expression plasmid vector, pcDNA3.1.
(§2) Receptor mediated responses were determined by measuring changes in intracellular cAMP using LANCE cAMP detection kit (cat #AD0264, Perkin Elmer, Wellesley, Mass.) based on time-resolved fluorescence resonance energy transfer (TR-FRET).
(§3) On the day of the experiment, cells were spun at low speed for 5 min at room temperature. […] Cell clumps were removed by filtering through cell strainer 40 μm (BD Falcon, Discovery Labware, Bedford, Mass.) and diluted to 2×10^5 cells/mL. Antibody supplied with the LANCE cAMP immunoassay kit was then added according to the manufacturer's instructions. An aliquot of cells was taken for un-induced controls. […] Cells were then incubated for 30 min at room temperature prior to adding to Proxiplates containing test compounds (final DMSO concentration was less than 0.5%) with a Multidrop bulk dispenser, followed by a sixty minute incubation at room temperature. The response was stopped by addition of the detection mix supplied with the LANCE kit. The reagents were allowed to equilibrate for three hours prior to reading on an Envision multi-mode detector (Perkin-Elmer). TR-FRET was measured using a 330-380 nm excitation filter, a 665 nm emission filter, dichroic mirror 380 nm and Z=1 mm. Cyclic AMP concentrations in each well were back-calculated from a cAMP standard curve run concurrently during each assay. Each plate contained 16 wells of forskolin stimulated cells and 16 wells of forskolin plus CP55,940-treated cells. […] Concentrations of cAMP were expressed as a percent of the difference of these two groups of wells.

[3] = biological target: human CB1 receptor (hCB1) (Homo sapiens, UniProt P21554); assay: cAMP assay (LANCE TR-FRET) in CHO-K1 cells stably expressing hCB1; assay type: cell-based
Procedure: as §1, §2, §3

rat CB2 receptor (rCB2) = biological target: T2, rat CB2 receptor (rCB2) (Rattus norvegicus, UniProt Q9QZN9); assay: cAMP assay (LANCE TR-FRET) in CHO-K1 cells expressing rat CB2; assay type: cell-based
T2 construct: expressed in transfected cells; host or cells: CHO-K1 (plasmid pcDNA3.1)
T2 sequence (Q9QZN9 1-360): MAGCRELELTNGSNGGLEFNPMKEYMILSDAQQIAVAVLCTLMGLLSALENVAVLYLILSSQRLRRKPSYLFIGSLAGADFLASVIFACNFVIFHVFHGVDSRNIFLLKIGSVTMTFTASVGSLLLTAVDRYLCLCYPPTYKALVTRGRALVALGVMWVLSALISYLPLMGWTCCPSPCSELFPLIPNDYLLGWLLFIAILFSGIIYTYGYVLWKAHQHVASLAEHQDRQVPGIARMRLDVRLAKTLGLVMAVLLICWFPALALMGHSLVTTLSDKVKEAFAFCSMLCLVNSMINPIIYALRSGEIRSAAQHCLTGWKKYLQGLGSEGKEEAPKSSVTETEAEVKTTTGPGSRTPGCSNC
Procedure: as §1, §2, §3

[4] = system: CFA-induced thermal hyperalgesia; assay: CFA model of acute inflammation: thermal hyperalgesia (paw withdrawal latency); assay type: in vivo, Male Sprague-Dawley rats; settings: for Attenuation (sec.) of CFA-induced thermal hyperalgesia (mean PWL ± SEM): p.o., vehicle 4.3 ± 0.2, naive 10.3 ± 0.3
Procedure: The anti-hyperalgesic effects of test compounds in the Complete Freund's Adjuvant (CFA) model of inflammatory pain were examined as described below. Male Sprague-Dawley rats (Hsd:Sprague-Dawley®™SD®™, Harlan, Indianapolis, Ind.) weighing about 200 grams, were housed three per cage. Test compound and ibuprofen (Sigma, cat 11892) were each prepared in a mixture of 1:1:18 ethanol:cremophor EL:water. Groups of six animals were subjected to local inflammation induced by 0.1 mL CFA (Sigma-Aldrich, cat F5881, Mycobacterium tuberculosis 1 mg/ml) injected subcutaneously into the plantar surface of the left paw.
Assessment of thermal hyperalgesia: Paw withdrawal latencies (PWLs) in response to a noxious thermal stimulus (Model #37370, Ugo Basile, Cat #55370) were obtained before and 24 hours after intraplantar administration of CFA. Rats were placed in plexi-glass chambers (10×21×14 cm) on top of a glass platform (un-heated) and allowed to acclimate for approximately 15 min before testing. Each rat received 3 trials separated by approx. 3 min each and these scores were averaged to provide the final PWL. The mean and standard error of the mean (SEM) were determined for the injured paw in each treatment group. Significant reductions in PWLs (i.e., increased sensitivity to a noxious stimulus) were interpreted as the presence of thermal hyperalgesia. To avoid tissue damage, a cut-off latency of 20 seconds was employed. These behavioral assessments were carried-out under blinded conditions (i.e., compound preparation and animal dosing was performed by someone other than the person carrying out the behavioral assessments). Ibuprofen (100 mg/kg, p.o.) was used as the positive control. The mean and SEM were determined for the injured and normal paws for each treatment group. CFA produces a significant increase in sensitivity to noxious thermal stimuli as PWLs decreased from a pre-CFA baseline of 10.3±0.3 sec to a value of 4.3±0.2 sec (p≦0.05, paired t-test). […] Compound 1-10 at a dose of 3 mg/kg produced a significant increase in PWLs (p<0.01, Bonferroni post-test) that persisted for at least 4 hours post-dosing.

T1 sequence (P34972 whole entry): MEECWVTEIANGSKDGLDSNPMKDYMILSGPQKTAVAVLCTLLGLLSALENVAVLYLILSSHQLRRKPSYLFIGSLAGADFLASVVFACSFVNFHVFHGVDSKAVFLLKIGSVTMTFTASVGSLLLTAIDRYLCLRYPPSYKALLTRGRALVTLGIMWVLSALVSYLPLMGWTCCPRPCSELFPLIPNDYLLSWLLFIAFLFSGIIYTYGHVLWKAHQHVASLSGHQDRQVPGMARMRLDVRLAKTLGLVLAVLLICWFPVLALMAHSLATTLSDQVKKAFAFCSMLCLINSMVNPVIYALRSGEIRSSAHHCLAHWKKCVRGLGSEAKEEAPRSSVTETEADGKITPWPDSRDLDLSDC
human CB1 receptor (hCB1), sequence (P21554 whole entry): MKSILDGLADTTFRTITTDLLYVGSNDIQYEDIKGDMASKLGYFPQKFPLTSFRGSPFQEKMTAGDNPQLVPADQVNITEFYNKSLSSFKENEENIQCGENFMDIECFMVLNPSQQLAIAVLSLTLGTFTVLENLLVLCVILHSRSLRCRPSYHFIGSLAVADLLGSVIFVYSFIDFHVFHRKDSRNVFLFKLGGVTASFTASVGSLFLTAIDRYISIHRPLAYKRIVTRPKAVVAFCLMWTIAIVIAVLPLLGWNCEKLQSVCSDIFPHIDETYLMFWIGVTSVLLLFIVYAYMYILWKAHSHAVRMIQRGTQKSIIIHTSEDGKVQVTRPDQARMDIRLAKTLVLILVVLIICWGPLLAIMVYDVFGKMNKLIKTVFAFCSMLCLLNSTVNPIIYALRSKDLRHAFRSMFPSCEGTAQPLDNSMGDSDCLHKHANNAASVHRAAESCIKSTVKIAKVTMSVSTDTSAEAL

Structure (SMILES)	EC50 [2]	EC50 [3]	EC50 (rat CB2 receptor (rCB2))	also measured
CNC(=O)[C@@H](NC(=O)c1nc(-c2ccc(F)c(F)c2)n2c1CCCCC2)C(C)(C)C [Compound 1-2, (S)-3-(3,4-difluorophenyl)-N-(3,3-dimethyl-1-(methylamino)-1-oxobutan-2-yl)-6,7,8,9-tetrahydro-5H-imidazo[1,5-a]azepine-1-carboxamide]	0.1 to 10 nM	0.1 to 10 nM	–	% maximum possible effect (% MPE), writhing [1]: greater than fifty
CCS(=O)(=O)N1CCc2c(C(=O)N[C@H](C(=O)NC)C(C)(C)C)nc(-c3ccccc3)n2CC1 [Compound 3-14, (S)-N-(3,3-dimethyl-1-(methylamino)-1-oxobutan-2-yl)-7-(ethylsulfonyl)-3-phenyl-6,7,8,9-tetrahydro-5H-imidazo[1,5-d][1,4]diazepine-1-carboxamide]	> 10000 nM	> 10000 nM	10 to 100 nM	–
CNC(=O)[C@@H](NC(=O)c1nc(-c2ccccc2)n2c1CCN(C(C)=O)CC2)C(C)(C)C [Compound 3-12, (S)-7-acetyl-N-(3,3-dimethyl-1-(methylamino)-1-oxobutan-2-yl)-3-phenyl-6,7,8,9-tetrahydro-5H-imidazo[1,5-d][1,4]diazepine-1-carboxamide]	> 10000 nM	> 10000 nM	> 10000 nM	–
CNC(=O)[C@@H](NC(=O)c1nc(-c2ccccc2)n2c1CCN(S(=O)(=O)c1ccc(F)cc1)CC2)C(C)(C)C [Compound 3-15, (S)-N-(3,3-dimethyl-1-(methylamino)-1-oxobutan-2-yl)-7-(4-fluorophenyl-sulfonyl)-3-phenyl-6,7,8,9-tetrahydro-5H-imidazo[1,5-d][1,4]diazepine-1-carboxamide]	–	–	0.1 to 10 nM	–
CNC(=O)[C@@H](NC(=O)c1nc(-c2ccccc2)n2c1CCCCC2)C(C)(C)C [Compound 1-1, (S)—N-(3,3-dimethyl-1-(methylamino)-1-oxobutan-2-yl)-3-phenyl-6,7,8,9-tetrahydro-5H-imidazo[1,5-a]azepine-1-carboxamide]	0.1 to 10 nM	10 to 100 nM	–	% maximum possible effect (% MPE), writhing [1]: greater than fifty
CNC(=O)[C@@H](NC(=O)c1nc(-c2ccccc2)n2c1CCNCC2)C(C)(C)C [Compound 3-8, (S)-N-(3,3-dimethyl-1-(methylamino)-1-oxobutan-2-yl)-3-phenyl-6,7,8,9-tetrahydro-5H-imidazo[1,5-d][1,4]diazepine-1-carboxamide]	–	–	10 to 100 nM	–
CNC(=O)[C@@H](NC(=O)c1nc(-c2ccc(F)c(F)c2)n2c1COCCC2)C(C)(C)C [Compound 1-10, (S)-3-(3,4-difluorophenyl)-N-(3,3-dimethyl-1-(methylamino)-1-oxobutan-2-yl)-5,6,7,9-tetrahydroimidazo[5,1-c][1,4]oxazepine-1-carboxamide]	10 to 100 nM	10 to 100 nM	–	Persistence of significant increase in PWLs post-dosing ([4]; 3 mg/kg p.o., p<0.01, Bonferroni post-test): at least 4 hours; Attenuation (sec.) of CFA-induced thermal hyperalgesia (mean PWL ± SEM) ([4]; 3 mg/kg, 1 hr): 6.5 ± 0.5 s; Attenuation (sec.) of CFA-induced thermal hyperalgesia (mean PWL ± SEM) ([4]; 3 mg/kg, 4 hr): 6.3 ± 0.3 s; Reversal of CFA-induced thermal hyperalgesia ([4]; oral (p.o.) administration): significant reversal
Cc1nnc(-c2nc(-c3ccc(F)c(F)c3)n3c2CCCCC3)o1 [Compound 4-1, 2-(3-(3,4-difluorophenyl)-6,7,8,9-tetrahydro-5H-imidazo[1,5-a]azepin-1-yl)-5-methyl-1,3,4-oxadiazole]	–	–	–	EC50 (rat CB2 receptor (rCB2); above the detectable range, read-out: EC50 rat CB2 receptor): > 10000 nM; EC50 ([2]; text statement b297, read-out: EC50 human CB2 receptor): > 10000 nM
CNC(=O)[C@@H](NC(=O)c1nc(-c2ccccc2)n2c1CCN(CC1CC1)CC2)C(C)(C)C [Compound 3-11, (S)-7-(cyclopropylmethyl)-N-(3,3-dimethyl-1-(methylamino)-1-oxobutan-2-yl)-3-phenyl-6,7,8,9-tetrahydro-5H-imidazo[1,5-d][1,4]diazepine-1-carboxamidc]	> 10000 nM	> 10000 nM	0.1 to 10 nM	–
CC(C)Cc1ccc(C(C)C(=O)O)cc1 (stereo not drawn) [Ibuprofen, reference compound]	–	–	–	Attenuation (sec.) of CFA-induced thermal hyperalgesia (mean PWL ± SEM) ([4]; 100 mg/kg, 1 hr): 7.6 ± 0.7 s; Attenuation (sec.) of CFA-induced thermal hyperalgesia (mean PWL ± SEM) ([4]; 100 mg/kg, 4 hr): 7.7 ± 0.6 s
CNC(=O)[C@@H](NC(=O)c1nc(-c2ccccc2)n2c1CCN(C)CC2)C(C)(C)C [Compound 3-9, (S)-N-(3,3-dimcthyl-1-(methylamino)-1-oxobutan-2-yl)-7-methyl-3-phenyl-6,7,8,9-tetrahydro-5H-imidazo[1,5-d][1,4]diazepine-1-carboxamide]	> 10000 nM	> 10000 nM	> 10000 nM	–
CNC(=O)[C@@H](NC(=O)c1nc(-c2ccccc2)n2c1CCN(CC(C)C)CC2)C(C)(C)C [Compound 3-10, (S)-N-(3,3-dimethyl-1-(methylamino)-1-oxobutan-2-yl)-7-isobutyl-3-phenyl-6,7,8,9-tetrahydro-5H-imidazo[1,5-d][1,4]diazepine-1-carboxamide]	–	–	10 to 100 nM	–
CC(C)(C)[C@H](NC(=O)c1nc(-c2ccccc2)n2c1CCCCC2)C(=O)N1CCC1 [Compound 1-4, (S)—N-(1-(azetidin-1-yl)-3,3-dimethyl-1-oxobutan-2-yl)-3-phenyl-6,7,8,9-tetrahydro-5H-imidazo[1,5-a]azepine-1-carboxamide]	0.1 to 10 nM	10 to 100 nM	–	–
